Results as given in US20140227238A1, “PEPTIDES HAVING PROTECTIVE EFFECT TOWARDS THE INFLAMMATORY ACTIVITY OF PEPTIDE 31-43 OF A-GLIADIN IN CELIAC DISEASE” (CRA-CONSIGLIO PER LA RICERCA E LA, priority 2011, published 2014).
“Also recorded” adds a separate entry of the source.

How the values were obtained:
[1] = tested on: intestinal biopsies from celiac patients; test: Organ culture of celiac duodenal mucosa with gliadin PT digest, immunolocalization of immune activation labels (CD25+, ICAM1, HLA-DR); assay type: cell-based, human
Procedure: (§1) Duodenal mucosa samples have been treated in vitro for 3 and 24 hours using medium, gliadin PT digest (500 μg/mL), p31-43 (20 μg/ml), pRPQ (10 μg/ml). P7mer and pTPO (10 μg/ml) have been used in all the experiments as control peptides.
(§2) 4 μm thick sections of frozen biopsy samples from celiac patients have been fixed in acetone for 10 minutes. Then sections have been incubated for 2 hours at room temp. with following antibodies: anti-phospho-tyrosine PY99 mAb (1:80, IgG2b; Saint Cruz Biotechnology, Saint Cruz, Calif.), phospho-p42/p44 (1:500, polyclonal Ig; Cell Technology Beverly, USA), ICAM1 (1:500, Abcam, Cambridge, BUT, USA), HLA-DR (1:500, Abcam, Cambridge, BUT, USA). Antigene expression and distribution thereof within biopsy sample have been visualized by indirect immunofluorescence as previously described. Monoclonal isotype control (IgG1 and IgG2) has been used as control. Samples have been analyzed using Zeiss LSM510 confocal laser scanning unit (Carl Zeiss, Germany).

[2] = tested on: biopsies from celiac subjects; test: Organ culture of celiac duodenal mucosa with p31-43, immunolocalization of Py99 and phospho-p42/p44; assay type: cell-based, human
Procedure: as §1, §2

[3] = tested on: K562(S) cells; test: K562(S) cell agglutination test; assay type: cell-based, human; conditions: for (Δ) O.D. (protecting activity): incubated together with p31-43; for protecting activity towards p31-43 induced agglutination of K562 cells: with p31-43
Procedure: K562(S) cells, an immature subclone of a cell line from a blastic phase chronic myelogenous leukemia patient, are cultured under 5% CO2 atmosphere at 37° C. in RPMI (Gibco, supplied by Invitrogen, Carlsbad, Calif., USA) containing 4.5 g/L glucose, 2 mM L-glutamine, 50 U/ml penicillin, […] streptomycin, 1% essential amino acids, 1% HEPES and 10% bovine fetal serum (FBS).
K562(S) cells to be used for agglutination test have been collected by centrifugation and washed two times with calcium and magnesium free PBS. Then cells have been resuspended at concentration of 10^8 cells/ml in PBS; […] of cell suspension added to each well of a 96 well plate. The peptide has been added at a concentration of 10 μg/ml. The final total volume has been 100 μl. Cell suspension has been incubated at room temp. for 30 minutes. Agglutination rate has been measured using a 96 well plate reader equipped with stirrer. Turbidity of cellular suspension has been measured at 600 nm (OD600 nm) under continuous stirring at 0 and 30 min times. The difference of T0 and T30 readings has been taken as agglutination rate (CV).

[4] = tested on: ICAM-1 in T84 cells; test: Western blotting for expression of ICAM-1 in T84 cells; assay type: cell-based, human; conditions: 24 hours; for ICAM-1 level in T84 cells: peptide alone, 20 μg/ml, compared to medium only; for ICAM-1 level in T84 cells exposed to p31-43: peptide together with p31-43, 20 μg/ml each
Procedure: T84 human colonic carcinoma cells have been cultured under 5% CO2 atmosphere at 37° C. in 50% DMEM, (Gibco, supplied by Invitrogen, Carlsbad, Calif., USA) and 50% […] containing 4.5 g/L glucose, 2 mM L-glutamine, 50 U/ml penicillin, […] streptomycin, 1% essential amino acids, 1% HEPES and 10% bovine fetal serum (FBS).
T84 cells have been treated with p31-43 peptide in absence and presence of pRPQ, pDAV, p7mer (at peptide concentration of 20 μg/ml) and culture medium only (like negative control) for 24 hours at 37° C.
For WB analysis, T84 cells have been seeded at a concentration of 1×10^5 cells/ml in 12 well plate and shortly treated before confluence was reached. Treatment has been carried out using 20 μg/ml of medium for each peptide (p31-43, p7mer, pDAV, pRPQ) for 24 hours. In order the protecting activity of pDAV and pRPQ towards toxic effect of p31-43 to be tested, a pre-incubation for 3 hours using these peptides before the exposure to p31-43, has been performed. After incubation, cells have been treated with buffer containing 150 mM NaCl, 0.05% sodium dodecyl sulfate (SDS) and 1% Triton X-100. This mixture then has been centrifuged for 5 minutes at 4° C. Protein concentration has been measured according to […]. SDS-(Polyacryl amide Gel Electrophoresis) has been carried out using 4% and 7.5% gel. […] of protein have been loaded for each gel run. Then the proteins have been transferred on nitrocellulose membrane (Biorad). Membranes have been incubated overnight with mice anti-ICAM-1 monoclonal Abs (Abcam, Cambridge, UK) at 1:250 dilution. Successively, after washings, said membrane have been incubated with secondary antibody (peroxidase HRP:3000; Biorad). Membrane occurring proteins are detected using chemiluminescent detection kit (Biorad), according to producer instructions. Blot intensity of protein bands has been evaluated by Biorad ChemiDoc densitometer.

[5] = tested on: K562(S) cells; conditions: earlier studies (6-9); cited from earlier work
[6] = tested on: TG2; test: In situ determination of TG2 activity in duodenal mucosa from celiac patients; assay type: cell-based, human; conditions: co-incubation with p31-43, biopsies from celiac subjects
Procedure: as §1
7 μm diameter sections have been collected on slide, pre-incubated with buffer (965 ml of 100 mmol/L Tris-HCl, pH 7.4, […] of 200 mmol/L CaCl2) for 15 minutes, and then pre-incubated with same buffer added with 10 ml of 10 mmol/L of biotinylated mono-dansylcadaverine (bio-MDC) (Molecular Probes, Leiden, The Netherlands) for 1 hour at room temp. The reaction is stopped using 25 mmol/L of EDTA for 5 minutes, then sections have been fixed in 4% paraformaldeide for 10 minutes. Labelled substrate incorporation has been visualized by incubation with streptavidin-conjugated RPE (1:50; Dako) for 30 minutes. Sections have been visualized fluorescently using Axioxop Zeiss 2 Plus micropurpose (Zeiss, Jena, Germany).

[7] = 10 μg/ml, difference of O.D at 600 nm at 0 and 30 minutes ×100, K562(S) cells
[8] = 500 μg/ml gliadin PT digest, 10 μg/ml peptide
[9] = p31-43 20 μg/ml, peptide 10 μg/ml

LDPLIRGILLARPAKL QV (SEQ ID NO: 16) (LDPLIRGILLARPAKLQV; control irrilevant peptide) [TPO control peptide, control irrelevant peptide, reference compound]
protecting effect against the activation induced by gliadin ([1]; duodenal biopsies): lacking of any protecting effect | protecting effect against the activation induced by p31-43 ([2]; duodenal biopsies): lacking of any protecting effect

QQPQDAVQPF (SEQ ID NO: 1) (mutated omega-secalin peptide) [pDAV, decapeptide identified earlier in wheat peptic-triptic digest (WO9727217)]
(Δ) O.D. (protecting activity) [3, 7]: −12 ± 1.9 | protecting activity towards p31-43 induced agglutination of K562 cells [3]: prevent p31-43 induced agglutination | ICAM-1 level in T84 cells [4]: No meaningful increase | ICAM-1 level in T84 cells exposed to p31-43 [4]: ICAM-1 levels similar to cells exposed only to culture medium | prevention of agglutination of K562(S) cells by gliadin peptides [5]: suitable to prevent the agglutination of K562(S) cells by gliadin peptides

QQPQGGGQPF (SEQ ID NO: 13) (peptide corresponding to SEQ ID NO4 sequence wherein X is three G) [pGGG]
(Δ) O.D. (protecting activity) [3, 7]: −7.9 ± 1.4 | protecting activity towards p31-43 induced agglutination of K562 cells [3]: displayed a protecting activity

QQPQQPF (SEQ ID NO: 3) (toxic gliadin peptide from aa 139 to aa 145 of omega-gliadin sequence having accession number AAT74547) [p7mer, 7mer peptide shared by pDAV and pRPQ, known to be toxic in CD, reference compound]
(Δ) O.D. (protecting activity) [3, 7]: 1.5 ± 1.1 | agglutinant activity towards K562 cells ([3]; peptide alone): displays also agglutinant activity | (Δ) O.D. (agglutinating activity) ([3]; peptide alone, 10 μg/ml, difference of O.D at 600 nm at 0 and 30 minutes ×100, K562(S) cells): 1.0 ± 0.3 | protecting activity towards p31-43 induced agglutination of K562 cells [3]: does not display any protecting effect | ICAM-1 level in T84 cells [4]: increases ICAM-1 intracellular levels | ICAM-1 level in T84 cells ([4]; listed as 7mer): poor increase | ICAM-1 level in T84 cells exposed to p31-43 [4]: does not exert any anti-inflammatory effect | ICAM-1 level in T84 cells exposed to p31-43 ([4]; listed as 7mer): no meaningful decrease

QQPQRPQQPF (SEQ ID NO: 2) (peptide corresponding ro omega-secalin from aa 218 to aa 227 codified by the sequence deposited at NCBI with accession number FJ823438) [pRPQ]
(Δ) O.D. (protecting activity) [3, 7]: −9.8 ± 1.7 | protecting activity towards p31-43 induced agglutination of K562 cells [3]: prevent p31-43 induced agglutination | ICAM-1 level in T84 cells [4]: No meaningful increase | ICAM-1 level in T84 cells exposed to p31-43 [4]: ICAM-1 levels similar to cells exposed only to culture medium | gliadin induced increase of HLA-DR expression in mucosa [1, 8]: meaningfully prevents; also recorded: suitable to control | gliadin induced increase of ICAM1 expression in mucosa [1, 8]: meaningfully prevents; also recorded: suitable to control | gliadin induced increase of T CD25+ cells within lamina propria [1, 8]: suitable to control | mucosa immunity stimulating activity ([1]; peptide alone, duodenal biopsies from both celiac and healthy control subjects, data not shown): lacking in mucosa immunity stimulating activity | expression increase of Py99 [2, 9]: meaningfully prevents | p42/44 phosphorylation induced by p31-43 [2, 9]: meaningfully prevents; also recorded: prevents the increase | p31-43-induced TG2 activity [6]: completely inhibited | p31-43-induced TG2 activity ([6]; listed as RPQ peptide): meaningfully prevents

QQPQWQPF (SEQ ID NO: 15) (peptide corresponding to SEQ ID NO4 sequence wherein X is W) [pW]
(Δ) O.D. (protecting activity) [3, 7]: −9.1 ± 2.3

QQPQYYYQPF (SEQ ID NO: 14) (peptide corresponding to SEQ ID No4 sequence wherein X is three Y) [pYYY]
(Δ) O.D. (protecting activity) [3, 7]: −7 ± 2.5 | protecting activity towards p31-43 induced agglutination of K562 cells [3]: little higher protecting activity than pGGG
